Drawing on patent US8822503B2, “2-pyridone compounds” (Taisho Pharmaceutical Co., Ltd, priority 2009, dated 2014), this text covers EC50 for 33 molecules.

A word on the EC50: it is the concentration at which the effect is half-maximal. Low values mean a more potent agent, high ones a less potent agent.

Molecules are shown by their SMILES.

The assay deals with T1, human liver GK (Homo sapiens, UniProt P35557).
T1 construct: GST (glutathione S-transferase) (N); made in house; host or cells: E. coli
T1 sequence (P35557 1-466 isoform P35557-2): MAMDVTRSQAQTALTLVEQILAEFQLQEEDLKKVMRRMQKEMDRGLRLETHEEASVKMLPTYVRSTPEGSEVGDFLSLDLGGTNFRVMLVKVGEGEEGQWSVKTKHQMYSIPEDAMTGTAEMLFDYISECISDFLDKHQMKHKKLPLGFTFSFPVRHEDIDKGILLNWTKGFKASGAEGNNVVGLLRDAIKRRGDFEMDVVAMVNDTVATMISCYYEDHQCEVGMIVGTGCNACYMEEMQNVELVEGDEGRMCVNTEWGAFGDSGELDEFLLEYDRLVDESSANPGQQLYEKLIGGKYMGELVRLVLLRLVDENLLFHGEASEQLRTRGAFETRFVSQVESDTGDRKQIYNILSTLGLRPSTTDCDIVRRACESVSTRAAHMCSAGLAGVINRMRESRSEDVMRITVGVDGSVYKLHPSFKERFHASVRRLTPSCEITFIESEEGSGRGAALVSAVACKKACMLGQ
Nature of the assay: GK activation test. Type of assay: biochemical. Particulars: test compound concentration needed to activate 50% of maximum activation ability; 4 mM 14C-labeled glucose, 2 mM ATP, room temperature, 20 minutes. Summed up: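 GST-tagged human liver GK from E. coli (0.24 μg/well) with 4 mM 14C-glucose, 2 mM ATP in Hepes-KOH pH 7.1, KCl, MgCl2, DTT, 1% DMSO, 20 min room temperature. Labeled glucose 6-phosphate captured on anion resin, eluted and counted. EC50 = concentration giving half of maximal activation.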
Consider `CCc1ccc(/C(=C/C2CCCC2)c2ccc(SC)c(Cl)c2)[nH]c1=O` [Example 1-20, 6-{(E)-1-[3-Chloro-4-(methylsulfanyl)phenyl]-2-cyclopentylethenyl}-3-ethylpyridin-2(1H)-one], for which the EC50 fell in the range of 0.01 to 0.5 µM.
Turning to `CCc1ccc(C(C[C@H]2CCC(=O)N2)c2ccc(C3CC3)c(=O)[nH]2)cc1Cl` (single isomer, unassigned) [Example 4-337], the EC50 fell in the range of 0.5 to 3 µM.
The molecule `Cc1c[nH]n(C/C=C(\c2ccc(C(C)(C)C)cc2)c2ccc(Cl)c(=O)[nH]2)c1=O` [Example 6-37, 6-[(1E)-1-(4-tert-Butylphenyl)-3-(4-methyl-5-oxo-2,5-dihydro-1H-pyrazol-1-yl)prop-1-en-1-yl]-3-chloropyridin-2(1H)-one] registered an EC50 of 0.5 to 3 µM.
`CSc1ccc(/C(=C\C2CCCC2)c2ccc(Cl)c(=O)[nH]2)cc1` [Example 1-1, 3-Chloro-6-{(E)-2-Cyclopentyl-1-[4-(methylsulfanyl)phenyl]ethenyl}pyridin-2(1H)-one]: the EC50 was in the range of 0.5 to 3 µM.
`O=C1CC[C@H](/C=C(\c2cccc(OCCCO)c2)c2ccc(C3CC3)c(=O)[nH]2)N1` [Example 4-8, 3-Cyclopropyl-6-{(E)-1-[3-(3-hydroxypropoxy)phenyl]-2-[(2R)-5-oxopyrrolidin-2-yl]ethenyl}pyridin-2(1H)-one] had a 50% effective concentration (EC50) of 0.5 to 3 µM.
For the molecule `CC(C)(C)c1ccc(C(CCN2CCOC2=O)c2ccc(Cl)c(=O)[nH]2)cc1` (single isomer, unassigned) [Example 6-29, 6-[1-(4-tert-Butylphenyl)-3-(2-oxo-1,3-oxazolidin-3-yl)propyl]-3-chloropyridin-2(1H)-one], the concentration for a half-maximal effect (EC50) is 0.5 to 3 µM.
As to `O=C1CC[C@H](CC(c2ccc(C(F)F)c(F)c2)c2ccc(C3CC3)c(=O)[nH]2)N1` (single isomer, unassigned) [Example 4-233], the EC50 was in the range of 0.5 to 3 µM.
Turning to `CCCOc1ccc(C(C[C@H]2CCC(=O)N2)c2ccc(C3CC3)c(=O)[nH]2)cc1` (single isomer, unassigned) [Example 4-352], the EC50 was 0.5 to 3 µM.
Regarding `O=C1CC[C@H](/C=C(\c2ccc(F)c(Cl)c2)c2ccc(C3CC3)c(=O)[nH]2)N1` [Example 4-104, 6-{(E)-1-(3-Chloro-4-fluorophenyl)-2-[(2R)-5-oxopyrrolidin-2-yl]ethenyl}-3-cyclopropylpyridin-2(1H)-one], the 50% effective concentration (EC50) was 0.5 to 3 µM.
`CC(C)(C)c1ccc(C(C[C@H]2CCC(=O)N2)c2ccc(C3CC3)c(=O)[nH]2)cc1` (stereo partly drawn) [Example 4-358, 6-{1-(4-tert-Butylphenyl)-2-[(2R)-5-oxopyrrolidin-2-yl]ethyl}-3-cyclopropylpyridin-2(1H)-one] came in with an EC50 of 0.01 to 0.5 µM.
Regarding `CSc1ccc(/C(=C\[C@H]2CCC(=O)C2)c2ccc(C)c(=O)[nH]2)cc1Cl` [Example 1-67, 6-{(E)-1-[3-Chloro-4-(methylsulfanyl)phenyl]-2-[(1S)-3-oxocyclopentyl]ethenyl}-3-methylpyridin-2(1H)-one], the EC50 lay within 0.01 to 0.5 µM.
Take `CCc1ccc(C(C[C@H]2CCC(=O)N2)c2ccc(C3CC3)c(=O)[nH]2)cc1` (single isomer, unassigned) [Example 4-303]: the EC50 is 3 to 10 µM.
Regarding `O=C1CC[C@H](/C=C(\c2ccc(OCCCCN3CCCC3)c(Cl)c2)c2ccc(Cl)c(=O)[nH]2)N1` [Example 4-64, 3-Chloro-6-{(E)-1-{3-chloro-4-[4-(pyrrolidin-1-yl)butoxy]phenyl}-2-[(2R)-5-oxopyrrolidin-2-yl]ethenyl}pyridin-2(1H)-one], the EC50 was 0.01 to 0.5 µM.
Molecule `CC(C)Oc1ccc(C(C[C@H]2CCC(=O)N2)c2ccc(Cl)c(=O)[nH]2)cc1Cl` (single isomer, unassigned) [Example 4-297] gave an EC50 of 3 to 10 µM.
As to `Cc1cc(C(C[C@H]2CCC(=O)N2)c2ccc(C3CC3)c(=O)[nH]2)ccc1S(=O)(=O)C1CC1` (single isomer, unassigned) [Example 4-299], the EC50 lay within 3 to 10 µM.
With `COc1ccc(C(C[C@H]2CCC(=O)N2)c2ccc(C3CC3)c(=O)[nH]2)cc1Cl` (single isomer, unassigned) [Example 4-327], the EC50 lay in the range of 3 to 10 µM.
On to `CCc1ccc(C(C[C@H]2CCC(=O)N2)c2ccc(Cl)c(=O)[nH]2)cc1` (single isomer, unassigned) [Example 4-308], for which the EC50 was in the range of 0.5 to 3 µM.
Turning to `O=C1CC[C@H](/C=C(\c2ccncc2)c2ccc(C3CC3)c(=O)[nH]2)N1` [Example 4-144, 3-Cyclopropyl-6-[(E)-2-[(2R)-5-oxopyrrolidin-2-yl]-1-(pyridin-4-yl)ethenyl]pyridin-2(1H)-one], the EC50 lay in the range of 3 to 10 µM.
The molecule `O=C1CC[C@H](CC(c2ccc(Cl)c(F)c2)c2ccc(C3CC3)c(=O)[nH]2)N1` (single isomer, unassigned) [Example 4-217] returned an EC50 of 0.5 to 3 µM.
The figure for `N#Cc1ccc(/C(=C\[C@H]2CCC(=O)N2)c2ccc(C3CC3)c(=O)[nH]2)cc1` [Example 4-285, 4-{(E)-1-(5-Cyclopropyl-6-oxo-1,6-dihydropyridin-2-yl)-2-[(2R)-5-oxopyrrolidin-2-yl]ethenyl}benzonitrile] is 0.5 to 3 µM.
Take `O=C1CC[C@H](/C=C(/c2ccc(C3CC3)c(=O)[nH]2)c2ccc(C(F)(F)F)cc2C(F)(F)F)N1` [Example 4-118, 6-{(E)-1-[2,4-Bis(trifluoromethyl)phenyl]-2-[(2R)-5-oxopyrrolidin-2-yl]ethenyl}-3-cyclopropylpyridin-2(1H)-one]: the EC50 lay within 3 to 10 µM.
For `CCOc1ccc(/C(=C\[C@H]2CCC(=O)N2)c2ccc(C3CC3)c(=O)[nH]2)c(F)c1F` [Example 4-282, 3-Cyclopropyl-6-{(E)-1-(4-ethoxy-2,3-difluorophenyl)-2-[(2R)-5-oxopyrrolidin-2-yl]ethenyl}pyridin-2(1H)-one], the EC50 is 0.01 to 0.5 µM.
As for `CC(C)CCCOc1ccc(/C(=C\[C@H]2CCC(=O)N2)c2ccc(Cl)c(=O)[nH]2)cc1Cl` [Example 4-21, 3-Chloro-6-{(E)-1-{3-chloro-4-[(4-methylpentyl)oxy]phenyl}-2-[(2R)-5-oxopyrrolidin-2-yl]ethenyl}pyridin-2(1H)-one], the concentration giving a half-maximal response (EC50) lay in the range of 0.01 to 0.5 µM.
Consider `CCOc1ccc(/C(=C\[C@H]2CCC(=O)C2)c2ccc(CC)c(=O)[nH]2)cc1Cl` [Example 1-59, 6-{(E)-1-(3-Chloro-4-ethoxyphenyl)-2-[(1S)-3-oxocyclopentyl]ethenyl}-3-ethylpyridin-2(1H)-one], for which the EC50 lay in the range of 0.01 to 0.5 µM.
Molecule `Cc1ccc(C(CC2CCCCC2)c2ccc(S(C)(=O)=O)cc2)[nH]c1=O` (stereo not drawn) [Example 2-17, 6-{2-Cyclohexyl-1-[4-(methylsulfonyl)phenyl]ethyl}-3-methylpyridin-2(1H)-one] displayed an EC50 of 0.5 to 3 µM.
The result for `O=C1CC[C@H](/C=C(\c2ccc(SC3CCCC3)cc2)c2ccc(Cl)c(=O)[nH]2)N1` [Example 4-33, 3-Chloro-6-{(E)-1-[4-(cyclopentylsulfanyl)phenyl]-2-[(2R)-5-oxopyrrolidin-2-yl]ethenyl}pyridin-2(1H)-one] reads 0.01 to 0.5 µM.
With `O=C1CC[C@H](/C=C(\c2ccc(C(F)(F)F)cc2)c2ccc(Cl)c(=O)[nH]2)N1` [Example 4-19, 3-Chloro-6-{(E)-2-[(2R)-5-oxopyrrolidin-2-yl]-1-[4-(trifluoromethyl)phenyl]ethenyl}pyridin-2(1H)-one], the EC50 was 0.5 to 3 µM.
In the case of `O=C1CC[C@H](/C=C(\c2ccc(C(F)(F)F)cc2)c2ccc(OC3CCCC3)c(=O)[nH]2)N1` [Example 4-168, 3-(Cyclopentyloxy)-6-{(E)-2-[(2R)-5-oxopyrrolidin-2-yl]-1-[4-(trifluoromethyl)phenyl]ethenyl}pyridin-2(1H)-one], the 50% effective concentration (EC50) is 0.5 to 3 µM.
As for `CC(C)Oc1ccc(/C(=C\[C@H]2CCC(=O)N2)c2ccc(C3CC3)c(=O)[nH]2)cc1Cl` [Example 4-258, 6-{(E)-1-[3-Chloro-4-(propan-2-yloxy)phenyl]-2-[(2R)-5-oxopyrrolidin-2-yl]ethenyl}-3-cyclopropylpyridin-2(1H)-one], the EC50 was in the range of 0.01 to 0.5 µM.
`O=C1CC[C@H](/C=C(\c2ccc(Cl)cc2)c2ccc(C3CC3)c(=O)[nH]2)N1` [Example 4-98, 6-{(E)-1-(4-Chlorophenyl)-2-[(2R)-5-oxopyrrolidin-2-yl]ethenyl}-3-cyclopropylpyridin-2(1H)-one] returned a concentration giving a half-maximal response (EC50) of 0.01 to 0.5 µM.
Regarding `CS(=O)(=O)c1ccc(/C(=C\C2CCCC2)c2ccc(C(F)(F)F)c(=O)[nH]2)cc1` [Example 1-28, 6-{(E)-2-Cyclopentyl-1-[4-(methylsulfonyl)phenyl]ethenyl}-3-(trifluoromethyl)pyridin-2(1H)-one], the EC50 lay in the range of 0.5 to 3 µM.
The molecule `CN1CCOc2cc(/C(=C\[C@H]3CCC(=O)N3)c3ccc(Cl)c(=O)[nH]3)ccc21` [Example 4-79, 3-Chloro-6-{(E)-1-(4-methyl-3,4-dihydro-2H-1,4-benzoxazin-7-yl)-2-[(2R)-5-oxopyrrolidin-2-yl]ethenyl}pyridin-2(1H)-one] showed an EC50 of 0.5 to 3 µM.
As for `O=C1CC[C@H](/C=C(\c2ccc(OC(F)(F)F)c(Cl)c2)c2ccc(C3CC3)c(=O)[nH]2)N1` [Example 4-128, 6-{(E)-1-[3-Chloro-4-(trifluoromethoxy)phenyl]-2-[(2R)-5-oxopyrrolidin-2-yl]ethenyl}-3-cyclopropylpyridin-2(1H)-one], the EC50 fell in the range of 0.01 to 0.5 µM.
